Drawing on US20260176289A1, “SMALL MOLECULE INHIBITORS OF KRAS PROTEINS” (Merck Sharp & Dohme LLC, priority 2022, published 2026), this text covers IC50 for 11 compounds.

Where two headings read alike, the source gives them in different places.

As usually defined, the IC50 is the midpoint of a concentration-inhibition curve.

Assay [1] deals with KRAS-G12D (Homo sapiens, UniProt P01116, G12D). Briefly: SOS-catalyzed nucleotide exchange assay (Procedure A, TR-FRET), KRAS-G12D. As to conditions: nucleotide exchange, read-out: KRAS G12D GNE IC50. The assay is classed as biochemical. In a few lines: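 Signal ratio (520/495 nm, excitation 340 nm) reports Bodipy-GDP retention on biotinylated RAS after SOS-catalyzed exchange with 3 mM GTP. SOS was 40 nM, except 160 nM for G12V. Room-temperature exchange lasted 60 min (90 min for G12V), following a 60 min compound preincubation.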
Sequence of KRAS-G12D (P01116 with tags, fused parts or gaps isoform P01116-2 G12D): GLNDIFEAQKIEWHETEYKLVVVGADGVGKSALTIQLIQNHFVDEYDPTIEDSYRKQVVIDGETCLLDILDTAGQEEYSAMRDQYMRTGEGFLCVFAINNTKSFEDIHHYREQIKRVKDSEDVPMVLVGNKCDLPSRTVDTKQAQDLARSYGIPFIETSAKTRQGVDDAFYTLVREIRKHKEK

For assay [2], the target named is KRAS-G13D (Homo sapiens, UniProt P01116, G13D). Briefly: SOS-catalyzed nucleotide exchange assay (Procedure A, TR-FRET), KRAS-G13D. In kind it is biochemical. The conditions noted are these: nucleotide exchange, Procedure A; read-out: KRAS G13D GNE IC50. (In general: Time-resolved FRET reads energy transfer from a long-lived donor to a nearby acceptor.)
Sequence of KRAS-G13D (P01116 with tags, fused parts or gaps isoform P01116-2 G13D): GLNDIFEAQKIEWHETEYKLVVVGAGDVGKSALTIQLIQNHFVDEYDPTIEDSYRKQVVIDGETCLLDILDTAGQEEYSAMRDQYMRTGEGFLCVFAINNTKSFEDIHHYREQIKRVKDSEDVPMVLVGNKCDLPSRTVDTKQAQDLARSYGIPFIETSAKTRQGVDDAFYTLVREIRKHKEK
In assay [3] the target is KRAS-WT (Homo sapiens, UniProt P01116). Briefly: SOS-catalyzed nucleotide exchange assay (Procedure A, TR-FRET), KRAS-WT. The assay is classed as biochemical. The conditions noted are these: nucleotide exchange, read-out: KRAS WT GNE IC50. Put shortly: (§1)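 TR-FRET 520/495 nm ratio read after SOS-driven exchange of Bodipy-GDP for unlabeled GTP (3 mM) on biotinylated RAS bound to Tb-streptavidin. There was a 60 min compound preincubation, RT. Final RAS/SOS and reaction times: G12C 3 nM/40 nM; WT 1 nM/40 nM; NRAS 1.25 nM/40 nM, each 60 min. G12V was 1.25 nM/160 nM, 90 min.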
Sequence of KRAS-WT (P01116 with tags, fused parts or gaps isoform P01116-2): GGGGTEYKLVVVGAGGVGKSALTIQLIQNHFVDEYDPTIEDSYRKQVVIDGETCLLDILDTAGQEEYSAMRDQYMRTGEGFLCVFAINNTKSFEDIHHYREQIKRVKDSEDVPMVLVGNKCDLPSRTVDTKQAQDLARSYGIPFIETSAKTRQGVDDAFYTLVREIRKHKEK

Assay [4] relates to PANC08.13 cells. Briefly: Cellular phospho-ERK assay, PANC08.13 cells (homozygous KRAS-G12D). The conditions noted are these: Homo sapiens, read-out: PANC-08.13 pERK IC50. In kind it is cell-based. On the procedure: Procedure for Cellular Phospho-ERK Assay in KRAS Wild Type and Mutant (G12D, G12V) Cell Lines
MKN-1 cells (JCRB JCRB0252) containing amplified wild-type KRAS, were cultured in growth medium that contains RPMI 1640-GlutaMAX™-I (ThermoFisher Scientific 61870) containing 10% heat inactivated fetal bovine serum (ThermoFisher Scientific 10091148), 1 mM sodium pyruvate and 10 mM HEPES. PANC08.13 cells (ATCC® CRL-2551™), containing homozygous KRAS-G12D activating mutation, were cultured in growth medium made of RPMI1640-GlutaMAX™-I (ThermoFisher Scientific 61870) containing 15% heat inactivated fetal bovine serum (ThermoFisher Scientific 10091148)). AsPC-1 cells (ATCC® CRL-1682™), containing homozygous KRAS-G12D activating mutation, were cultured in T150 flask in growth medium (RPMI medium 1640-GlutaMAX™-I (ThermoFisher Scientific 61870) containing 10% fetal bovine serum (ThermoFisher Scientific 10091148)). SW620 cells (ATCC® […]), containing homozygous KRAS-G12V activating mutation, were cultured in growth medium that contains RPMI 1640-GlutaMAX™-I (ThermoFisher Scientific 61870) containing 10% heat inactivated fetal bovine serum (ThermoFisher Scientific 10091148).
Cells for the assay were harvested in growth medium after TrypLE (ThermoFisher scientific 12604021) digestion and were seeded in a 384-well collagen coated cell culture plate (Corning 356702) at a density of 10,000-15,000 cells/20 μL/well, and incubated at 37° C., 5% CO2 overnight. The compound (with 10 mM stock concentration) dose-response titrations were prepared [30 μM final ERK detection assay concentration and 1:3 dilutions, 10-point dose response] and appropriate amounts (270 nL) of test compounds were dispensed in a 384-well intermediate plate using an Echo 550 liquid handler. 30 μL/well of RPMI medium 1640-GlutaMAX™—I was added to the intermediate plate and the contents of the intermediate plate (10 μL/well) were then transferred to the 384-well collagen coated cell culture plate, which was incubated at 37° C., 5% CO2 for 2 hours. After removal of medium from the collagen coated cell culture plate, cells were lysed in lysis buffer from Alpha SureFire® Ultra™ Multiplex p-ERK and total ERK assay kit (PerkinElmer MPSU-PTERK) containing Halt™ Protease and Phosphatase inhibitor cocktail (ThermoFisher Scientific 78446) at room temperature with constant shaking at 300 rpm for 30 minutes. The cell lysates were then transferred to an OptiPlate-384 plate (PerkinElmer 6005620), and the phosphorylation of ERK (p-ERK) and total ERK levels were detected by Alpha SureFire® Ultra™ Multiplex p-EEK kit and total ERK assay kit (PerkinElmer MPSU-PTERK) following the manufacturer's protocol. Assay plates were read on a En Vision Multimode Plate Reader (PerkinElmer), and the ratio of p-ERK vs. total ERK in each well was used as the final readout. Dose response curves were analyzed using a 4-parameter logistic model to calculate IC50 values using Spotfire software.

The target of assay [5] is KRAS-G12C (C51S/C80L/C118S) (Homo sapiens, UniProt P01116, C118S/C51S/C80L/G12C). The assay can be described thus: SOS-catalyzed nucleotide exchange assay (Procedure A, TR-FRET), KRAS-G12C. The assay is classed as biochemical. The conditions noted are these: nucleotide exchange, Procedure A; read-out: KRAS G12C GNE IC50. Put shortly:
as §1

Assay [6] addresses KRAS-G12V (Homo sapiens, UniProt P01116, G12V). Briefly: SOS-catalyzed nucleotide exchange assay (Procedure A, TR-FRET), KRAS-G12V. In kind it is biochemical. As to conditions: nucleotide exchange, read-out: KRAS G12V GNE IC50. Put shortly: as §1
Setting [7] is: PANC-08-13, 2 hours compound incubation.

Sequence of KRAS-G12V (P01116 with tags, fused parts or gaps isoform P01116-2 G12V): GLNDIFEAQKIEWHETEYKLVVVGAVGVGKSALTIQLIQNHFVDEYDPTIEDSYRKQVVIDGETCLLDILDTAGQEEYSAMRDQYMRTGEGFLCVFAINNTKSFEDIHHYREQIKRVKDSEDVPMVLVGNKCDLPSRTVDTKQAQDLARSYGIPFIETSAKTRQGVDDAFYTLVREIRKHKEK
Sequence of KRAS-G12C (C51S/C80L/C118S) (P01116 with tags, fused parts or gaps isoform P01116-2 G12C/C51S/C80L/C118S): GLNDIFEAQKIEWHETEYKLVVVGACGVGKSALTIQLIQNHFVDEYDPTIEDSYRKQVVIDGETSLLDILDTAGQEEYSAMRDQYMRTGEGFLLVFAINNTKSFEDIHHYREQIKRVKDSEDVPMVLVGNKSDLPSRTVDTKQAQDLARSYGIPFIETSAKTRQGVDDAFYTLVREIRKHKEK

Regarding `Cc1cc2[nH]nc(C)c2c(-c2nccc3c4c(N5CCOC[C@@](C)(O)C5)nc(OC[C@@]56CCCN5C[C@H](F)C6)nc4n(C)c23)c1C(F)F` (single isomer, unassigned) [Ex-8], the IC50 in assay [1] was 1500 nM; in assay [2], 2090 nM; in assay [3], 2250 nM; in assay [4] (PANC-08-13, KRAS-G12D, 2 hours), 1430 nM; in assay [5] it was 1190 nM; in assay [6] it was 1650 nM.
Regarding `Cc1cc2[nH]ncc2c(-c2nccc3c2sc2nc(OC[C@@]45CCCN4C[C@H](F)C5)nc(N4CCOC[C@@](C)(O)C4)c23)c1C#N` [Ex-34, 4-(2-(((2R,7aS)-2-fluorotetrahydro-1H-pyrrolizin-7a(5H)-yl)methoxy)-4-((S)-6-hydroxy-6-methyl-1,4-oxazepan-4-yl)pyrido[4′,3′:4,5]thieno[2,3-d]pyrimidin-8-yl)-6-methyl-1H-indazole-5-carbonitrile], the IC50 is 261 nM in assay [1]; 1090 nM in assay [2]; 494 nM in assay [3]; 900 nM in assay [4] (PANC-08-13, KRAS-G12D, 2 hours); 175 nM in assay [5]; 440 nM in assay [6].
Turning to `Cc1cc2[nH]ncc2c(-c2nccc3c2sc2nc(OC[C@@]45CCCN4C[C@H](F)C5)nc(NC4COC4)c23)c1C(F)(F)F` [Ex-184, 2-(((2R,7aS)-2-fluoro-tetrahydro-1H-pyrrolizin-7a(5H)-yl)methoxy)-8-(6-methyl-5-(trifluorometh-yl)-1H-indazol-4-yl)-N-(oxetan-3-yl)pyrido [4′,3′:4,5]thieno[2,3-d] pyrimidin-4-amine], the IC50 in assay [1] stood at 591 nM; in assay [2], 668 nM; in assay [3], 822 nM; in assay [4] (setting [7]) it was 812 nM; in assay [5] it was 96.7 nM; in assay [6], 194 nM.
Consider `Cc1nc2[nH]ncc2c(-c2nccc3c4c(N5CCOC[C@@](C)(O)C5)nc(OC[C@@]56CCCN5C[C@H](F)C6)nc4n(C)c23)c1C(F)(F)F` [Ex-14, (6S)-4-(2-(((2R,7aS)-2-fluorotetrahydro-1H-pyrrolizin-7a(5H)-yl)methoxy)-9-methyl-8-(6-methyl-5-(trifluoromethyl)-1H-pyrazolo[3,4-b]pyridin-4-yl)-9H-pyrido[4′,3′:4,5]pyrrolo[2,3-d]pyrimidin-4-yl)-6-methyl-1,4-oxazepan-6-ol], for which the IC50 in assay [1] amounted to 276 nM; in assay [2], 543 nM; in assay [3], 681 nM; in assay [4] (PANC-08-13, KRAS-G12D, 2 hours), 561 nM; in assay [5] it was 233 nM; in assay [6], 404 nM.
In the case of `C#Cc1c(F)ccc2nc(N)cc(-c3nccc4c3sc3nc(OC[C@@]56CCCN5C[C@H](F)C6)nc(N5CCOC[C@@](C)(O)C5)c34)c12` [Ex-178, (S)-4-(8-(2-amino-5-ethynyl-6-fluoroquinolin-4-yl)-2-(((2R,7aS)-2-fluorotetrahydro-1H-pyrrolizin-7a(5H)-yl)methoxy)pyrido[4′,3′: 4.5]thieno[2,3-d]pyrimidin-4-yl)-6-methyl-1,4-oxazepan-6-ol], the IC50 in assay [1] worked out at 906 nM; in assay [2] it was 1060 nM; in assay [3], 1280 nM; in assay [4] (setting [7]) it was 1700 nM; in assay [5], 241 nM; in assay [6] it was 657 nM.
For the compound `Cc1cc2[nH]nc(C#N)c2c(-c2nccc3c2sc2nc(OC[C@@]45CCCN4C[C@H](F)C5)nc(N4CCOC[C@@](C)(O)C4)c23)c1C(F)(F)F` [Ex-150, 4-(2-(((2R,7aS)-2-fluorotetrahydro-1H-pyrrolizin-7a(5H)-yl)methoxy)-4-((S)-6-hydroxy-6-methyl-1,4-oxazepan-4-yl)pyrido[4′,3′:4,5]thieno[2,3-d]pyrimidin-8-yl)-6-methyl-5-(trifluoromethyl)-1H-indazole-3-carbonitrile], the IC50 in assay [1] amounted to 1210 nM; in assay [2], 1430 nM; in assay [3], 1870 nM; in assay [4] (setting [7]), 974 nM; in assay [5] it was 743 nM; in assay [6] it was 2120 nM.
Regarding `Cc1cc2[nH]nc(C#N)c2c(-c2nccc3c4c(N5CCOC[C@@](C)(O)C5)nc(OC[C@@]56CCCN5C[C@H](F)C6)nc4n(C)c23)c1C(F)F` (single isomer, unassigned) [Ex-9], the IC50 in assay [1] worked out at 616 nM; in assay [2], 560 nM; in assay [3], 1350 nM; in assay [4] (PANC-08-13, KRAS-G12D, 2 hours) it was 1690 nM; in assay [5], 566 nM; in assay [6], 575 nM.
As to `Cc1n[nH]c2cc(Cl)c(C(F)F)c(-c3nccc4c5c(N6CCOC[C@@](C)(O)C6)nc(OC[C@@]67CCCN6C[C@H](F)C7)nc5n(C)c34)c12` (single isomer, unassigned) [Ex-13], the IC50 in assay [1] stood at 3660 nM; in assay [2], 4860 nM; in assay [3], 2750 nM; in assay [4] (PANC-08-13, KRAS-G12D, 2 hours), 4300 nM; in assay [5], 1480 nM; in assay [6], 1660 nM.
With `Cc1cc2[nH]ncc2c(-c2nccc3c2sc2nc(OC[C@@]45CCCN4C[C@H](F)C5)nc(N4CCOCC4)c23)c1C(F)(F)F` [Ex-179, 4-(2-(((2R,7aS)-2-fluorotetrahydro-1H-pyrrolizin-7a(5H)-yl)methoxy)-8-(6-methyl-5-(trifluoromethyl)-1H-indazol-4-yl)pyrido[4′,3′:4,5]thieno[2,3-d]pyrimidin-4-yl) morpholine], the IC50 came to 7600 nM in assay [1]; 1320 nM in assay [2]; 2760 nM in assay [3]; 3900 nM in assay [4] (setting [7]); 124 nM in assay [5]; 1600 nM in assay [6].
On to `Cc1cc2[nH]ncc2c(-c2nccc3c2oc2nc(OC[C@]4(CN(C)C)CC4(F)F)nc(N4CCOC[C@@](C)(O)C4)c23)c1C(F)(F)F` [Ex-291, (6S)-4-(2-(((R)-1-((dimethylamino)methyl)-2.2-difluorocyclopropyl)meth-oxy)-8-(6-methyl-5-(trifluoromethyl)-1H-indazol-4-yl)pyrido[4′,3′:4,5]furo[2,3-d]pyrimidin-4-yl)-6-methyl-1,4-oxazepan-6-ol], for which the IC50 came out at 153 nM in assay [1]; 210 nM in assay [2]; 377 nM in assay [3]; 306 nM in assay [4] (PANC-08-13, KRAS-G12D, 2 hours); 116 nM in assay [5]; 207 nM in assay [6].
As for `C[C@@]1(O)COCCN(c2nc(OC[C@@]34CCCN3C[C@H](F)C4)nc3sc4c(-c5c(C(F)F)ccc6[nH]ncc56)nccc4c23)C1` [Ex-134], the IC50 in assay [1] is 1160 nM; in assay [2] it was 2310 nM; in assay [3] it was 7210 nM; in assay [4] (setting [7]) it was 2680 nM; in assay [5] it was 648 nM; in assay [6], 876 nM.
